We go through 15 molecules from US20130217672A1, “(+)-3-HYDROXYMORPHINAN-BASED POLYCYCLE DERIVATIVES” (GREEN CROSS CORPORATION, priority 2010, published 2013).

SMILES strings stand for the structures. Where a name gives a salt, the structure may show the parent alone.

For series [1], the system named is dopamine (DA) neurons in substantia nigra pars compacta. As to conditions: MPTP model, daily injections; cited from earlier work.
The nature of series [2]: Cell cytotoxicity test: HT22 cells co-treated with 5 mM glutamate and compound, MTT readout. Type of series: cell-based, mouse. As to conditions: mouse, HT22 cells (mouse hippocampal neuron). As for the experimental part: (§1) HT22 cells (mouse hippocampal neuron, Salk Institute and KRIBB) were placed in a 96-well plate 3×10^3 cells/well for 16 h before treatment. Five millimolar glutamate and the inventive compounds were co-treated and incubated for 24 h in growth media (DMEM with 10% FBS and 1% penicillin streptomycin). MTT (3-(4,5-dimethylthazol-2-yl)-2,5-diphenyltetrazolium bromide, Sigma®) was treated for 4 h and detected with a plate reader at a wavelength=450 nm [Da-Qing, et. al., Anti-oxidant and anti-inflammatory activities of macelignan in murine hippocampal cell line and primary culture of rat microglia cells, BBRC, 2005, 331, 1264-1269].
(§2) The EC50 values were statistically analyzed using Prism® (GraphPad Software Inc., San Diego, Calif.). The results of the cell cytotoxicity test are summarized in Table 1 (EC50: neuroprotective effect against glutamate toxicity, and CC50: cytotoxicity of compound).

In series [3] the test system is HT22 cells (mouse hippocampal neuron). The description is as above. Type of series: cell-based. As to conditions: Mus musculus, HT-22, five millimolar glutamate co-treated, 24 h, read-out: EC50: neuroprotective effect against glutamate toxicity. Here is the method:
as §1, §2

With `Oc1ccc2c(c1)[C@@]13CCCC[C@H]1[C@@H](C2)NCC3` [(+)-3-HM, (+)-3-hydroxymorphinan], in series [1], the “DA levels in striatum” value is “restored” and the “DA neurons in substantia nigra pars compacta” value is listed as “protected”.

On to `Oc1cc2c(c3c1OCCN3)C[C@@H]1NCC[C@]23CCCC[C@H]13` [Example 1, (6S,6aS,10aS)-2,3,4,5,6,6a,7,8,9,10-Decahydro-6,10a-(epiminoethano)phenanthro[2,1-b][1,4]oxazin-12-ol TFA salt], for which the CC50 at 24 h in series [2] is over 100 µM. For the same molecule, the EC50 in series [3] stood at 26.9 µM.

With `Oc1cc2c(c3c1OCCCN3)C[C@@H]1NCC[C@]23CCCC[C@H]13` [Example 2, (7S,7aS,11aS)-3,4,5,6,7,7a,8,9,10,11-Decahydro-2H-7,11a-(epiminoethano)phenanthro[2,1-b][1,4]oxazepin-13-ol TFA salt], the CC50 at 24 h in series [2] was over 100 µM. The concentration for a half-maximal effect (EC50) in series [3] was 27.7 µM.

As for `CC(=O)N1CCOc2c(O)cc3c(c21)C[C@@H]1NCC[C@]32CCCC[C@H]12` [Example 3, 1-((6S,6aS,10aS)-12-Hydroxy-2,3,6,6a,7,8,9,10-octahydro-6,10a-(epiminoethano)phenanthro[2,1-b][1,4]oxazin-4(5H)-yl)ethanone TFA salt], in series [2], the half-maximal cytotoxic concentration (CC50) at 24 h was over 100 µM. For the same molecule, the EC50 in series [3] came out at 8.5 µM.

Turning to `CN1CCOc2c(O)cc3c(c21)C[C@@H]1NCC[C@]32CCCC[C@H]12` [Example 4, (6S,6aS,10aS)-4-Methyl-2,3,4,5,6,6a,7,8,9,10-decahydro-6,10a-(epiminoethano)phenanthro[2,1-b][1,4]oxazin-12-ol TFA salt], the CC50 at 24 h in series [2] was over 100 µM. Also, in series [3], the concentration for a half-maximal effect (EC50) is 9.6 µM.

In the case of `Oc1cc2c(c3c1OCCO3)C[C@@H]1NCC[C@]23CCCC[C@H]13` [Example 5, (6S,6aS,10aS)-3,5,6,6a,7,8,9,10-Octahydro-2H-6,10a-(epiminoethano)phenanthro[1,2-b][1,4]dioxin-12-ol TFA salt], the 50% cytotoxic concentration (CC50) at 24 h in series [2] was over 100 µM. Besides, the EC50 in series [3] was determined as 4.97 µM.

As for `CC1COc2c3c(cc(O)c2N1)[C@]12CCCC[C@@H]1[C@H](C3)NCC2` (stereo partly drawn) [Example 6, (6S,6aS,10aS)-2-Methyl-1,2,3,5,6,6a,7,8,9,10-decahydro-6,10a-(epiminoethano)phenanthro[1,2-b][1,4]oxazin-12-ol TFA salt], the cytotoxic concentration (CC50) at 24 h in series [2] was over 100 µM. Further, in series [3], the EC50 was found to be 0.314 µM.

In the case of `Oc1cc2c(c3c1NCCO3)C[C@@H]1NCC[C@]23CCCC[C@H]13` [Example 7, (6S,6aS,10aS)-1,2,3,5,6,6a,7,8,9,10-Decahydro-6,10a-(epiminoethano)phenanthro[1,2-b][1,4]oxazin-12-ol TFA salt], in series [2], the CC50 at 24 h stood at 13.5 µM. Also, in series [3], the concentration for a half-maximal effect (EC50) was determined as 0.65 µM.

Take `Oc1cc2c(c3c1NC(c1ccccc1)CO3)C[C@@H]1NCC[C@]23CCCC[C@H]13` (stereo partly drawn) [Example 8, (6S,6aS,10aS)-2-Phenyl-1,2,3,5,6,6a,7,8,9,10-decahydro-6,10a-(epiminoethano)phenanthro[1,2-b][1,4]oxazin-12-ol TFA salt]: the CC50 at 24 h in series [2] was found to be 8.1 µM. In series [3], the EC50 is 0.457 µM.

As for `Oc1cc2c(c3nccnc13)C[C@@H]1NCC[C@]23CCCC[C@H]13` [Example 9, (6S,6aS,10aS)-6,6a,7,8,9,10-Hexahydro-5H-6,10a-(epiminoethano)naphtho[2,1-f]quinoxalin-12-ol TFA salt], the CC50 at 24 h in series [2] came out at 44.8 µM. For the same molecule, in series [3], the concentration for a half-maximal effect (EC50) came to 16.3 µM.

Regarding `Oc1cc2c(c3nc4ccccc4nc13)C[C@@H]1NCC[C@]23CCCC[C@H]13` [Example 10, (4aS,14S,14aS)-2,3,4,13,14,14a-Hexahydro-1H-14,4a-(epiminoethano)naphtho[2,1-a]phenazin-6-ol TFA salt], the CC50 at 24 h in series [2] was 10.7 µM. Further, the half-maximal effective concentration (EC50) in series [3] was 0.354 µM.

For the molecule `Oc1cccc2c1[nH]c1c(O)cc3c(c12)C[C@@H]1NCC[C@]32CCCC[C@H]12` [Example 11, (4aS,13S,13aS)-1,2,3,4,7,12,13,13a-Octahydro-13,4a-(epiminoethano)naphtho[1,2-c]carbazole-6,8-diol TFA salt], the CC50 at 24 h in series [2] is 44 µM. In series [3], the EC50 is 0.303 µM.

Regarding `Oc1cc2c(c3c1[nH]c1ccccc13)C[C@@H]1NCC[C@]23CCCC[C@H]13` [Example 12, (4aS,13S,13aS)-1,2,3,4,7,12,13,13a-Octahydro-13,4a-(epiminoethano)naphtho[1,2-c]carbazol-6-ol TFA salt], the CC50 at 24 h in series [2] was 49.8 µM. Also, in series [3], the EC50 amounted to 0.71 µM.

`Oc1ccc2[nH]c3c(O)cc4c(c3c2c1)C[C@@H]1NCC[C@]42CCCC[C@H]12` [Example 13, (4aS,13S,13aS)-1,2,3,4,7,12,13,13a-Octahydro-13,4a-(epiminoethano)naphtho[1,2-c]carbazole-6,10-diol TFA salt]: the CC50 at 24 h in series [2] was over 100 µM. In addition, the concentration for a half-maximal effect (EC50) in series [3] came to 1.11 µM.

For `Cc1ccc2[nH]c3c(O)cc4c(c3c2c1)C[C@@H]1NCC[C@]42CCCC[C@H]12` [Example 14, (4aS,13S,13aS)-10-Methyl-1,2,3,4,7,12,13,13a-octahydro-13,4a-(epiminoethano)naphtho[1,2-c]carbazol-6-ol TFA salt], the CC50 at 24 h in series [2] was found to be 5.7 µM. Further, the EC50 in series [3] came out at 0.908 µM.
